From ChEMBL document CHEMBL1201862, “PubChem BioAssay data set” (2004)
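Interpolation was linear, between the two tested concentrations surrounding the appropriate level; five concentrations were tested over 48 hours in 96-well plates. GI50 = concentration required for 50% inhibition of growth.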 Active and inactive are the calls of the source. Cut-off read from the data, not from the text of the source: active = GI50 up to about 1.1 µM and inactive = higher.

How the values were obtained:
Experiment in all cases: NCI tumour cell line growth inhibition, 48 h
786-0 = test system: 786-0
A498 = test system: A498
A549 = test system: A549
BT-549 = test system: BT-549
CAKI-1 = test system: CAKI-1
CCRF-CEM = test system: CCRF-CEM
COLO 205 = test system: COLO 205
DU-145 = test system: DU-145
EKVX = test system: EKVX
HCT-116 = test system: HCT-116
HCT-15 = test system: HCT-15
HL-60 = test system: HL-60
HOP-62 = test system: HOP-62
HT-29 = test system: HT-29
Hs-578T = test system: Hs-578T
IGROV-1 = test system: IGROV-1
K562 = test system: K562
KM12 = test system: KM12
LOX IMVI = test system: LOX IMVI
M14 = test system: M14
MCF7 = test system: MCF7
MDA-MB-231 = test system: MDA-MB-231
MDA-MB-435 = test system: MDA-MB-435
MDA-N = test system: MDA-N
MOLT-4 = test system: MOLT-4
Malme-3M = test system: Malme-3M
NCI-H226 = test system: NCI-H226
NCI-H460 = test system: NCI-H460
NCI-H522 = test system: NCI-H522
NCI/ADR-RES = test system: NCI/ADR-RES
OVCAR-3 = test system: OVCAR-3
OVCAR-4 = test system: OVCAR-4
OVCAR-5 = test system: OVCAR-5
OVCAR-8 = test system: OVCAR-8
PC-3 = test system: PC-3
RPMI-8226 = test system: RPMI-8226
RXF 393 = test system: RXF 393
SF-268 = test system: SF-268
SF-295 = test system: SF-295
SF-539 = test system: SF-539
SK-MEL-28 = test system: SK-MEL-28
SK-MEL-2 = test system: SK-MEL-2
SK-MEL-5 = test system: SK-MEL-5
SK-OV-3 = test system: SK-OV-3
SN12C = test system: SN12C
SNB-19 = test system: SNB-19
SNB-75 = test system: SNB-75
SR = test system: SR
SW-620 = test system: SW-620
T47D = test system: T47D
TK-10 = test system: TK-10
U-251 = test system: U-251
UACC-257 = test system: UACC-257
UACC-62 = test system: UACC-62
UO-31 = test system: UO-31

Measured: GI50

O=C(NNC(=O)c1ccccc1O)c1ccc(O)cc1
19.2 µM: HCT-15
inactive: 786-0 46.8 µM | A498 > 100 µM | A549 38.8 µM | BT-549 40.6 µM | CAKI-1 50.9 µM | CCRF-CEM 70.8 µM | COLO 205 47.8 µM | DU-145 76.7 µM | EKVX 38.3 µM | HCT-116 33.2 µM | HL-60 52.8 µM | HOP-62 47.5 µM | HT-29 37.4 µM | Hs-578T > 100 µM | IGROV-1 23.9 µM | K562 84.9 µM | KM12 45.3 µM | LOX IMVI 31.6 µM | M14 23.7 µM | MCF7 58.9 µM | MDA-MB-231 10.2 µM | MDA-MB-435 69.7 µM | MDA-N > 100 µM | MOLT-4 36.4 µM | Malme-3M 14.5 µM | NCI-H226 14.8 µM | NCI-H460 31.5 µM | NCI-H522 13.1 µM | NCI/ADR-RES 22.1 µM | OVCAR-3 38.4 µM | OVCAR-4 91.6 µM | OVCAR-5 > 100 µM | OVCAR-8 21.1 µM | PC-3 37.6 µM | RPMI-8226 81.5 µM | RXF 393 > 100 µM | SF-268 9.95 µM | SF-295 33 µM | SF-539 66.7 µM | SK-MEL-28 > 100 µM | SK-MEL-2 22.5 µM | SK-MEL-5 > 100 µM | SK-OV-3 33.4 µM | SN12C > 100 µM | SNB-19 > 100 µM | SNB-75 24.4 µM | SR 49.1 µM | SW-620 81.3 µM | T47D > 100 µM | TK-10 > 100 µM | U-251 > 100 µM | UACC-257 89.1 µM | UACC-62 28.1 µM | UO-31 42 µM
